Test results published in patent US20220389058A1, “PEPTIDES AND COMPOSITIONS FOR USE IN COSMETICS AND MEDICINE” (LIPOTRUE, S.L., priority 2019, published 2022).

How the values were obtained:
human skin explants = assay: Ex vivo methylglyoxal-induced glycation, CML immunostaining (Example 14); details: cream containing 1% (w/v) Ac-SEQ ID NO: 1-NH2, topical 2 mg/cm^2; methylglyoxal 500 μM; after 9 days of culture
Procedure: Briefly, human skin explants from a person were kept in survival in BEM culture medium at 37° C. in a humid, 5% CO2 atmosphere. […] Explants were collected at each timepoint and cut in two parts. Half was fixed in buffered formalin solution and half was frozen at −80° C.
After fixation for 24 hours in buffered formalin, the samples were dehydrated and impregnated in paraffin. 5-μm-thick sections were made using a Leica RM 2125 Minot-type microtome, and the sections were mounted on Superfrost® histological glass slides.

[1] = Lipid peroxidation, TBARS assay (Example 13); assay type: biochemical; details: 0.01, 0.05, 0.1 and 0.5 mg/mL; 2 hours at 37° C.; vs negative control
Procedure: Briefly, Trolox (positive control), 0.01, 0.05, 0.1 and 0.5 mg/mL of peptide Ac-SEQ ID NO: 1-NH2 in presence of small unilamellar vesicles of egg yolk phosphatidylcholine (EYPC), a substrate for lipid peroxidation were incubated for 2 hours at 37° C. in the presence of thiobarbituric acid (TBA). A fluorimetric method was used to evaluate the % of lipid peroxidation compared to the negative control (sample only with small unilamellar vesicles of egg yolk phosphatidylcholine).

emilin-1 = assay: Emilin-1 protein expression, immunofluorescence in HDLMVEC (Example 18); assay type: cell-based, Human
Procedure: HDLMVEC were cultured on coverslips in Microvascular Endothelial Cell Growth (MECG) Medium at a density of 16.000 cell/cm^2 and 37° C. in a humidified atmosphere with 5% CO2. When cell confluence was around 70-80%, cells were treated with 0.05 mg/mL Ac-SEQ ID NO:1-NH2 in MECG medium for 24 hours. Then, cells were washed twice with PBS, fixed with 4% formaldehyde and permeabilized with Triton 0.2%. Next, samples were blocked for 1 hour with PBS/BSA 5%, in order to avoid nonspecific antibody binding. Emilin-1 was stained with 1:50 Emilin-1 antibody in PBS/BSA 1%, during 1.5 hours at room temperature. After proper washing with PBS, actin was stained with 50 μg/mL Phalloidin during 1 hour at room temperature. Then, cells were washed with PBS and incubated with 5 μg/mL of the secondary antibody Goat anti-Rabbit IgG for 1 hour at room temperature. Finally, coverslips were mounted using Vectashield with DAPI, that stains nuclei, and samples were kept protected from light at 4° C. until microscopic images were acquired. […]
Images were analyzed using Image J software. Shortly, threshold was adjusted to select emilin-1 staining and mean fluorescent was measured. The number of cells was counted using the DAPI staining. […]
Statistical data analysis was performed using Student t-test by comparison of fluorescence from treated cells vs non-treated cells, *, p<0.05; **, p<0.01 and ***, p<0.001.

[2] = Protein glycation (AGE formation), fluorimetric (Example 14); assay type: biochemical; details: 0.01, 0.05, 0.1 and 0.5 mg/mL; 72 hours at 37° C.; vs negative control
Procedure: Briefly, 0.01, 0.05, 0.1 and 0.5 mg/mL of peptide Ac-SEQ ID NO: 1-NH2 were mixed together with a glycation agent and its corresponding substrate. Samples were incubated for 72 hours at 37° C. A fluorimetric method was used to evaluate the % of protein glycation compared to the negative control (sample only with sugar substrate).

IL33 = IL33 expression modulation by RT-qPCR in HDFa cells (Example 7); assay type: cell-based, Human; details: 0.01 mg/mL, 24 hours
Procedure: A stock solution of the peptide was prepared in water at 1 mg/mL. Working solution was freshly prepared at the specified concentration from stock solution in the corresponding supplemented medium.
RNA (ribonucleic acid) extraction and RT-qPCR (reverse transcription quantitative polymerase chain reaction) were performed. Briefly, HDFa and HEKa cells were seeded in duplicate (n=2) in 6-well plates at a density of 4×10^5 cells/well and maintained at standard culture conditions (106 Medium supplemented with 1% (v/v) LSGS for HDFa cells; Medium Epilife supplemented with 1% (v/v) EDGS and 1% (v/v) penicillin/streptomycin for HEKa cells; 37° C., 95% room humidity, 5% CO2) for 24 hours. […]
Cells were finally lysed, and replicates were pooled together for RNA extraction using Qiagen RNeasy Mini kit following manufacturer's instructions. […] (Annealing and extension) (Arya, M., Shergill, I. S., Williamson, M., Gommersall, L., Arya, N., Patel, H. R. (2005) Basic principles of real-time quantitative PCR. Expert Rev. Mol. Diagn.; 5(2):209-19; and Jozefczuk, J. and Adjaye, J. (2011) Quantitative real-time PCR-based analysis of gene expression. Methods Enzymol. 500; 99-109).
The obtained data was analysed using the ΔΔCt method, which provides the target gene expression values as fold changes in the treated sample compared with an untreated basal sample. […]

In the case of “Ac-Arg-Arg-Gln-Met-Arg-Glu-NH2 (Ac-RRQMRE-NH2) [Ac-SEQ ID NO: 1-NH2]”, the “decrease in CML signal when compared with MG-exposed untreated explants” value (human skin explants) is reported as −73%, the “lipid peroxidation (TBARS)” value [1] is reported as “able to protect from lipid peroxidation” and the “% Mean of emilin-1 compared to untreated cells” value (emilin-1; 0.05 mg/mL, 24 hours, basal = 100.00) is reported as 170.88%. For the same substance, the “increase of the expression of emilin-1 when compared with untreated cells” value (emilin-1; 24 h of treatment) was “more than 70%”, the protein glycation [2] was “able to protect from protein glycation” and the “IL33 expression, fold change treated cells with regard to basal control” value (IL33) was −1.22 fold change.
